Source: ChEMBL document CHEMBL1130389, “Synthesis and ligand binding studies of 4'-iodobenzoyl esters of tropanes and piperidines at the dopamine transporter” (J Med Chem, 1997)

What follows are compounds tested against Sodium-dependent dopamine transporter (Rattus norvegicus, UniProt P23977) (assay: Compound was tested for inhibitory activity to displace [3H]WIN-35428 at dopamine transporter in Rat Striatal Membranes.).
Sodium-dependent dopamine transporter, sequence (P23977 whole entry): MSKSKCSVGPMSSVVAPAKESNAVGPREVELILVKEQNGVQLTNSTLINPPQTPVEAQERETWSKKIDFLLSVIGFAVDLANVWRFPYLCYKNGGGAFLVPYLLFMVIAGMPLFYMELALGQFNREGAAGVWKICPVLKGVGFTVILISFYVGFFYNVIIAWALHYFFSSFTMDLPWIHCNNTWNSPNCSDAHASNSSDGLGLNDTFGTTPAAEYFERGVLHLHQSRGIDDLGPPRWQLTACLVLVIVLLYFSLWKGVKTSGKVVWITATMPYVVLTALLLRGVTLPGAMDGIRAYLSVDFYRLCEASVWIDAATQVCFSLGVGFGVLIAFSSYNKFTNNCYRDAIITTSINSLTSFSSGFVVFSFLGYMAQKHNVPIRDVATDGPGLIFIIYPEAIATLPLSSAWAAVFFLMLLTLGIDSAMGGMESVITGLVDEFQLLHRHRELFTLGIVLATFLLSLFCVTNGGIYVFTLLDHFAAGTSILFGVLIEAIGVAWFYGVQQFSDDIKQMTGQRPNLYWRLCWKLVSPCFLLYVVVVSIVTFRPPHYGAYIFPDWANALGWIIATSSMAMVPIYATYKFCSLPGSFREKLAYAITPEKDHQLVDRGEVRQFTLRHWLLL

Row | Compound | IC50 [nM]
1 | COC(=O)[C@H]1[C@@H](OC(=O)c2ccc(I)cc2O)C[C@H]2CC[C@H]1N2C | 215
2 | COC(=O)[C@H]1[C@@H](OC(=O)c2ccccc2O)C[C@H]2CC[C@H]1N2C | 25.2
3 | COC(=O)[C@H]1[C@@H](OC(=O)c2ccccc2OC(C)=O)CC2CC[C@H]1N2C | 69.5
4 | COC(=O)[C@@H]1C2CC[C@H](C[C@@H]1OC(=O)c1ccc(O)cc1)N2C | 153
5 | COC(=O)[C@@H]1C2CC[C@H](C[C@@H]1OC(=O)c1cccc(O)c1)N2C | 1180
6 | COC(=O)C1CN(C)CC[C@@H]1OC(=O)c1ccc(I)cc1 (some centres not stated) | 8060
7 | CN1CCC(OC(=O)c2ccc(I)cc2)CC1 | 11600
